Laboratory results as given in US20230107216A1, “PANTETHEINE DERIVATIVES AND USES THEREOF” (Comet Therapeutics, Inc., priority 2018, published 2023).
Where two headings read alike, the source gives them in different places.

How the values were obtained:
[1] = test system: Propionic Acidemia (PA) primary fibroblasts GM00371; experiment: Mitochondrial respiration, XFe96 Extracellular Flux Analyzer (OCR/ECAR), PA fibroblasts GM00371; format: cell-based; conditions: Homo sapiens, Fibroblast
HepG2 cells = experiment: Glucose uptake (Glucose Uptake-Glo); format: cell-based; conditions: Homo sapiens, 50 uM, read-out: % increase in Glucose Uptake
[2] = test system: Venular Endothelial cells (HUVEC) (4H system); experiment: BioMAP 4H system (IL-4 and histamine); format: cell-based, human; conditions: 10 uM; procedure of Example 826
[3] = test system: Peripheral blood mononuclear cells co-cultured with venular endothelial cells (HUVEC) (LPS system); experiment: BioMAP LPS system; format: cell-based, human; conditions: procedure of Example 827
[4] = test system: Peripheral blood mononuclear cells co-cultured with venular endothelial cells (Sag system); experiment: BioMAP Sag system (T-cell ligands); format: cell-based, human; conditions: 10 uM; procedure of Example 828
Experimental: The BioMAP platform (BioMAP® Diversity PLUS® Panel from Eurofins) is an in vitro phenotypic profiling technology that screened the compounds of the present disclosure (hereafter indicated as test agents) in human primary cell-based systems modelling complex tissue and disease states. The BioMAP assays were performed using the Eurofin's BioMAP Technology Platform as (see references 1 to 13 in the example 824 section) to model different diseases on primary cell-based model systems. These systems consisted of either single primary cell types or co-culture cells. Adherent cell types were cultured or co-cultured in 96 or 384-well plates until confluence followed by the addition of compounds prepared in DMSO at a final concentration of ≤0.1%. In each cell-based system, primary cells from heathy donors (2-6 donors) were pooled and treated with compounds at 1 and 10 μM dose 1h prior to stimulation and remain in culture as indicated in Example 825, Example 826, Example 827, Example 828, Example 829, Example 830, Example 831, Example 832, Example 833, Example 834, Example 835, Example 836 and Example 837. For on the BioMAP® Diversity PLUS® Panel, please see the following references, which are incorporate herein.
Following the general procedure as described in Example 824, Peripheral blood mononuclear cells were co-cultured with venular endothelial cells and treated with soluble antigen (T-cell ligands) (Sag system) in the presence or absence of compounds to model autoimmune and chronic inflammation. Biomarkers read out were; MCP-1, CD38, CD40, E-selectin, CD69, IL-8, MIG, PBMC cytotoxicity, Proliferation and SRB.

[5] = test system: Bronchial epithelial cells co-cultured with dermal fibroblast (BF4T system); experiment: BioMAP BF4T system (TNFα and IL-4); format: cell-based, human; conditions: Homo sapiens, 24 h; 10 uM; procedure of Example 830; read-out: % increase in VCAM-1
[6] = test system: Bronchial epithelial cells (BE3C system); experiment: BioMAP BE3C system (IL-1β, TNFα, IFNγ); format: cell-based, human; conditions: Homo sapiens, Epithelial cell, 24 h; 10 uM; procedure of Example 831; read-out: % decrease in MMP-1
[7] = test system: Coronary artery smooth muscle cells (CASM3C system); experiment: BioMAP CASM3C system (IL-1β, TNFα, IFNγ); format: cell-based, human
[8] = test system: Dermal fibroblasts (HDF3CGF system); experiment: BioMAP HDF3CGF system (IL-1β, TNFα, IFNγ, EGF, bFGF, PDGF-BB); format: cell-based, human; conditions: Homo sapiens, Fibroblast, 72 h; 1 uM; read-out: % increase in 72 Hour Proliferation
[9] = test system: Peripheral blood mononuclear cells co-cultured with B-cells (BT system); experiment: cells; conditions: Homo sapiens, 72 h, read-out: % decrease in sIL-17
[10] = test system: primary fibroblasts (healthy controls and PA, MMA, BCKDK, PDH, VLCAD, LS, PC, GA, VLCFA, KSS, FXN, HD); experiment: Measurement of ROS (H2DCFDA) in primary fibroblasts; format: cell-based, human; conditions: Homo sapiens, procedure Example 812, Assay Condition C
Procedure, shortened: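 Patient and healthy-control primary fibroblasts switched to supplemented DMEM 24 h before assay, then treated with compound (10 μM) plus H2DCFDA (22 μM) for 2 h (PA, MMA lines) or 24 h (other lines). Kinetic fluorescence at 492/527 nm over 60 min; only live cells analysed.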

[11] = test system: Leigh Syndrome (LS) primary fibroblasts GM03672; experiment: NADP+/NADPH (NADP/NADPH-Glo), Leigh fibroblasts GM03672; format: cell-based; conditions: Homo sapiens, Fibroblast, Leigh GM03672 P8, assay condition B (1 mM glucose, 2 mM L-glutamine, 1 mM pyruvate, 10% FBS), 24h, read-out: Increase in Total NADP+ + NADPH
Experimental: Primary adherent fibroblasts were cultured in minimum essential medium (MEM) (Gibco, 25030081) supplemented with 2 mM L-Glutamine (Gibco, 25030081), 15% fetal bovine serum (FBS) (Gibco, 26400044) and 1% penicillin/streptomycin (Gibco, 5140122) at 37° C. and 5% CO2. Cells were collected for either passaging or experiment at ˜70-80% confluence. Cells were obtained by trypsinization and seeded in cell culture microplates either white plate (Thermo Fisher Scientific, 152028) for luminescent measurement or black plate (Thermo Fisher Scientific, 165305) for fluorescent based read out for different assays listed below. Cells were obtained by trypsinization and […] were seeded and allowed to adhere for 16-18 hours to have confluency around 70-80% in the cell well with culture media. After 24 hours prior to measurements (37° C., 5% CO2) media was changed to Dulbecco's Modified Eagle Medium (DMEM, Agilent Seahorse cat #103575-100) with the appropriate supplements as stated below.
Primary fibroblasts assayed were Propionic Acidemia (PA) (GM03590 Coriell Institute for Medical Research, Tsi 6337 Trans-Hit Bio), Methylmalonic Acidemia (MMA) (Tsi 5224 Trans-Hit Bio), Subnormal activation of pyruvate dehydrogenase complex (PDH) (GM01503 Coriell Institute for Medical Research), Very long-chain acyl-CoA dehydrogenase (VLCAD) (GM17475), Leigh Syndrome (LS) (GM03672, GM13411 Coriell Institute for Medical Research), Pyruvate Carboxylase Deficiency (PC) (GM00444 Coriell Institute for Medical Research). 10 μM of Compounds were added for 2 hours in PA, MMA lines and for 24h for the other fibroblast lines.
Assay was performed according to manufacturer instructions (NADP+/NADPH-Glo Assay Promega, G9082). Assay required a plate for total measurement of NADP+/NADPH and a plate for individual measurement of NADP+ or NADPH. For every assay a 12-point standard curve is prepared ranging from 400 nM to 0.625 nM. Media is removed and replaced with 50 μl of PBS for both assays.
For individual NADP+/NADPH measurements, 50 μl of 1% DTAB (Sigma, D5047) (cell lysis reagent) in 0.2N NaOH was added to the plates and 100 μl of lysate was split into two plates with 50 μl each from which ratio of NADP/NADPH can be calculated. 25 μl of 0.4N HCl were added to the NADP+ plates and both NADP+ and NADPH plates were heated at 60° C. for 15 minutes. The acid and heat treatment destroyed NADPH allowing individual NADP+ measurements while heating in basic conditions destroys NADP+ allowing individual NADPH measurement. After 15 minutes plates were allowed to come to room temperature and Trizma base (Sigma, T1699) was added to the NADP+ plates to neutralize the acid and HCl Trizma hydrochloride (Sigma, T2694) was added to the NADPH plates. The NADNADPH glo reagent was prepared by adding 125 μl of NAD cycling substrate, 125 μl of reductase, 125 μl of reductase substrate, 125 μl NAD cycling enzyme to a total of the 25 ml of NAD GLO reagent. 1:1 ratio of total volume of reagent was added to the individual NADP+, NADPH measurements (total 100 μl) and 50 μl were added for the total NAD/NADPH measurements. Luminescence was measured for 30-60 minutes within the linear range.
A total dead cell count was performed as described in Example 817 and only alive cells were used for analysis.

[12] = test system: primary fibroblasts GM00649, GM06225, GM00612, GM00444, GM03672; experiment: MMP, ROS and ATP multiplex (ArrayScan); format: cell-based; conditions: Homo sapiens, Fibroblast; Leigh GM03672; procedure Example 838; 50 μM (table line r25); read-out: Decreased ROS by at least 10%
Experimental: Cell culture and treatments. Primary adherent fibroblasts were cultured in minimum essential medium (MEM) (Gibco, 25030081) supplemented with 2 mM L-Glutamine (Gibco, 25030081), 15% fetal bovine serum (FBS) (Gibco, 26400044) and 1% penicillin/streptomycin (Gibco, 5140122) at 37° C. and 5% CO2. Cells were collected for either passaging or experiment at ˜70-80% confluence. Cells were obtained by trypsinization and seeded at 10000 cells/well in cell culture microplates (Seahorse Bioscience, 101085-004) and allowed to adhere for 16 hours in culture media. After media was refreshed with DMEM (Agilent Seahorse 103575-100) supplemented with 1 mM glucose and 10% FBS (Gibco, 26400044). At the end of the incubation period, the cells were loaded with the relevant dye/antibody for each cell health marker. The assay provided simultaneous measurement of cell health parameters including cell count, ROS formation (DHE), mitochondrial membrane potential (MitoTracker®) and cellular ATP content (CellTiter-Glo®, Promega). The plates were then scanned using an automated fluorescent cellular imager, ArrayScan® (Thermo Scientific Cellomics). Assay conditions were optimized by one skilled in the art.
Primary cells used in this example were obtained from Coriell Institute for Medical Research and consisted of GM00649, MSUD (Maple Syrup Urine Disease) Tyle IA; GM06225, Kearns-Sayre Syndrome; GM00612, MSUD (Maple Syrup Urine Disease) Tyle II GM00444, Pyruvate Carboxylase Deficiency and GM03672, Leigh Syndrome.

In the case of CCC(=O)OCC(C)(C)[C@@H](O)C(=O)NCCC(=O)NCCSC(=O)CCC(=O)O [Compound 157, 4-[(2-[3-[(2R)-2-hydroxy-3,3-dimethyl-4-(propanoyloxy)butanamido]propanamido]ethyl)sulfanyl]-4-oxobutanoic acid], the activation at 50 µM ([1]; assay condition C (10 mM glucose, 10% FBS), 50 μM, read-out: Increase in Maximal Respiratory Capacity AUC) is reported as no less than 10%, the activation at 50 µM (HepG2 cells) is reported as no less than 20% and the “% decrease in MCP-1” value [2] is reported as no less than 10%. The “% increase in Tissue Factor” value ([3]; 1 uM) was no less than 10%, the inhibition at 10 µM ([3]; Homo sapiens, HUVEC, 24 h, 10 uM, read-out: % decrease in IL-1α) was no less than 10% and the inhibition at 10 µM ([3]; Homo sapiens, HUVEC, 24 h, 10 uM, read-out: % decrease in TissueFactor) was no less than 10%. For the same compound, the activation at 10 µM ([3]; Homo sapiens, HUVEC, 24 h, 10 uM, read-out: % increase in sTNFα) was no less than 10%, the “% increase in Proliferation” value [4] was no less than 10% and the activation at 10 µM [5] was no less than 10%. For the same compound, the inhibition at 10 µM [6] was no less than 10%, the “% decrease in Proliferation” value ([7]; 1 uM, procedure of Example 832) was no less than 10% and the “% decrease in HLA-DR” value ([7]; 10 uM) was no less than 10%. For the same compound, the activation at 1 µM [8] was no less than 10% and the inhibition at 1 µM [9] was no less than 10%.

With CC(C)(CO)[C@@H](OC(=O)CN)C(=O)NCCC(=O)NCCSC(=O)CCC(=O)O [Compound 1292, 4-[(2-[3-[(2R)-2-[(2-aminoacetyl)oxy]-4-hydroxy-3,3-dimethylbutanamido]propanamido]ethyl)sulfanyl]-4-oxobutanoic acid] the activation at 10 µM ([1]; assay condition D (1 mM glucose, 10% FBS), 10 μM, read-out: Increase in Spare Capacity AUC) was no less than 30%, the inhibition at 10 µM ([10]; Fibroblast, KSS GM06225, read-out: Decreased ROS by at least 30%) was no less than 30% and the inhibition at 10 µM ([10]; Fibroblast, Leigh GM13411, read-out: Decreased ROS by at least 10%) was no less than 10%. The inhibition at 10 µM ([10]; FXN GM04078, read-out: Decreased ROS by at least 10%) was no less than 10%, the inhibition at 10 µM ([10]; FXN GM04078, read-out: Decreased ROS by at least 30%) was no less than 30% and the activation at 10 µM [11] was no less than 10%. The inhibition at 50 µM [12] was no less than 10%.
